From ChEMBL document CHEMBL1132094, “Human telomerase inhibition by substituted acridine derivatives” (Bioorg Med Chem Lett, 1999)
The source made the active and inactive calls. The rule behind the calls is not given here.

Legend:
[1] = biological target: DNA polymerase I, thermostable (Thermus aquaticus) (UniProt P19821); experiment: Ability to inhibit Taq polymerase in vitro at a concentration of 50 uM; NI means No inhibition
CH1 = experiment: In vitro cytotoxicity against human ovarian carcinoma cell line CH1 using sulforhodamine B (SRB) assay; type: functional, cell-based
[2] = biological target: DNA polymerase I, thermostable (Thermus aquaticus) (UniProt P19821); experiment: Ability to inhibit Taq polymerase in vitro at a concentration of 20 uM; NI means No inhibition
[3] = biological target: Telomerase reverse transcriptase (Homo sapiens, UniProt O14746); experiment: Ability to inhibit human telomerase in a modified cell-free TRAP assay using extracts from A2780 cell line
Chain of Telomerase reverse transcriptase (O14746 whole entry): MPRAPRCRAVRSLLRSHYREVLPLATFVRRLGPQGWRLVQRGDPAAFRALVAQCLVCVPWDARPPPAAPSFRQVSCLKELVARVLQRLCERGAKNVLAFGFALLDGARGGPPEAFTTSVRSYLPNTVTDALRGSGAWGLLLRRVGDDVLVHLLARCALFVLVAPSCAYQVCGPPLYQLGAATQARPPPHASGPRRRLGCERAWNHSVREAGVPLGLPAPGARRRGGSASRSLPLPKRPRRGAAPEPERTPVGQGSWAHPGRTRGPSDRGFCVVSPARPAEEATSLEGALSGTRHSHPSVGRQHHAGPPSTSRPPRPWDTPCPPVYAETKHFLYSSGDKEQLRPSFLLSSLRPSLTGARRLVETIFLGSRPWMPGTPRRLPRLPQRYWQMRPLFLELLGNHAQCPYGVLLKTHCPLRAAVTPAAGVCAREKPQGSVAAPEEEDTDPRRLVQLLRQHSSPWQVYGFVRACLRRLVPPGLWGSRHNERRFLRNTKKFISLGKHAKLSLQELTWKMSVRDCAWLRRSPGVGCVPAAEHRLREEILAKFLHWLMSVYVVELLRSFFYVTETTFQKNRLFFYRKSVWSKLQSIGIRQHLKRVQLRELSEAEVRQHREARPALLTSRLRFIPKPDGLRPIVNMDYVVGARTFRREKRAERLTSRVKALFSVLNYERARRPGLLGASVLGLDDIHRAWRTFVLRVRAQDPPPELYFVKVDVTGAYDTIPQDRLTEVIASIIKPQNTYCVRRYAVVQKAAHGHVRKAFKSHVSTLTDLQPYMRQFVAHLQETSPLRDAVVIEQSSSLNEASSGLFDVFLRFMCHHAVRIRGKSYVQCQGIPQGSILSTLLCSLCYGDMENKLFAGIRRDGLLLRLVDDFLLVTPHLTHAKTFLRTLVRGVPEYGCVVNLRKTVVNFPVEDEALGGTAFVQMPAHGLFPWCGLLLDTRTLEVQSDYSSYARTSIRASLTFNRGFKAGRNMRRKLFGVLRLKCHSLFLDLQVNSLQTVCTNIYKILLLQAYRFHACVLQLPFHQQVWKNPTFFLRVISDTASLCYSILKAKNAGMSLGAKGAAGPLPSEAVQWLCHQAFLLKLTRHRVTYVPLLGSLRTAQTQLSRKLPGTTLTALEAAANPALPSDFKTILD

[4] = biological target: DNA polymerase I, thermostable (Thermus aquaticus) (UniProt P19821); experiment: Ability to inhibit Taq polymerase in vitro at a concentration of 10 uM; NI means No inhibition
A2780 = experiment: In vitro cytotoxicity against human ovarian carcinoma cell line A2780 using sulforhodamine B (SRB) assay; type: functional, cell-based
SK-OV-3 = experiment: In vitro cytotoxicity against human ovarian carcinoma cell line SKOV-3 using sulforhodamine B (SRB) assay; type: functional, cell-based

Chain of DNA polymerase I, thermostable (Thermus aquaticus) (P19821 whole entry): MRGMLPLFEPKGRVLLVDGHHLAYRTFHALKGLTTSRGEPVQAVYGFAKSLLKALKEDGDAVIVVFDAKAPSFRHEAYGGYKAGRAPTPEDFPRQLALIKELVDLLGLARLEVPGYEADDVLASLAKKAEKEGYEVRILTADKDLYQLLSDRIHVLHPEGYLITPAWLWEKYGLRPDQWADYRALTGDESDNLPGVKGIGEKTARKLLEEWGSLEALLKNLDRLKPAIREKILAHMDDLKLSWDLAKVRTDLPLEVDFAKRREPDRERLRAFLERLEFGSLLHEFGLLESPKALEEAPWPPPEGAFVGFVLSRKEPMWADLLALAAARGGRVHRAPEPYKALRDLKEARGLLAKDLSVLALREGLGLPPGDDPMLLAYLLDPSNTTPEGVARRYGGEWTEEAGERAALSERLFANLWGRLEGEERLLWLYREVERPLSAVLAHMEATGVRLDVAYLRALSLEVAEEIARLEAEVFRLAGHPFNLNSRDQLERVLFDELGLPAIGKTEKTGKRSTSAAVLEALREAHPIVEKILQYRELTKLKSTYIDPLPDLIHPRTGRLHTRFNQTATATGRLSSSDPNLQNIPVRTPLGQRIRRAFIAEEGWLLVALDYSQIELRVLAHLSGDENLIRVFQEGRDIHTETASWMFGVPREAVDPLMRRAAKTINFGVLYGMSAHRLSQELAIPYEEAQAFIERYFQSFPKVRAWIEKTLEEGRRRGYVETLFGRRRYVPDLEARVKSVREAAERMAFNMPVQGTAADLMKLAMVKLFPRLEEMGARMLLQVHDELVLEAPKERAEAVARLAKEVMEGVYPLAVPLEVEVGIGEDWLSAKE

Row | SMILES | inhibition [1] | IC50 (CH1) [nM] | inhibition [2] | IC50 [3] [nM] | inhibition [4] | IC50 (A2780) [nM] | IC50 (SK-OV-3) [nM]
1 | O=C(CCN1CCCCCCC1)Nc1ccc2cc3ccc(NC(=O)CCN4CCCCCCC4)cc3nc2c1 | inactive | 2200 | inactive | > 50000 | inactive | 1300 | 2300
2 | O=C(CCN1CCC(O)CC1)Nc1ccc2cc3ccc(NC(=O)CCN4CCC(O)CC4)cc3nc2c1 | inactive | 15000 | inactive | 8000 | inactive | 6200 | 13000
3 | CC1(C)CC2CC(C)(CN2CCC(=O)Nc2ccc3cc4ccc(NC(=O)CCN5CC6(C)CC5CC(C)(C)C6)cc4nc3c2)C1 | inactive | 540 | inactive | > 50000 | inactive | 500 | 2200
4 | CC1CCN(CCC(=O)Nc2ccc3cc4ccc(NC(=O)CCN5CCC(C)CC5)cc4nc3c2)CC1 | inactive | 2050 | inactive | 1350 | inactive | 2150 | 2400
5 | CCC1CCCCN1CCC(=O)Nc1ccc2cc3ccc(NC(=O)CCN4CCCCC4CC)cc3nc2c1 (configuration not stated) | inactive | 2200 | inactive | 2700 | inactive | 2200 | 3900
6 | O=C(CCN1CCCCCC1)Nc1ccc2cc3ccc(NC(=O)CCN4CCCCCC4)cc3nc2c1 | inactive | 1850 | inactive | 3100 | inactive | 1100 | 2500
7 | CC1CCCN(CCC(=O)Nc2ccc3cc4ccc(NC(=O)CCN5CCCC(C)C5)cc4nc3c2)C1 (configuration not stated) | inactive | 2200 | inactive | 4400 | inactive | 2100 | 2850
8 | O=C(CCN1CCCCC1CO)Nc1ccc2cc3ccc(NC(=O)CCN4CCCCC4CO)cc3nc2c1 (configuration not stated) | inactive | 10500 | inactive | 5400 | inactive | 2300 | 7000
9 | O=C(CCN1CCCC1)Nc1ccc2cc3ccc(NC(=O)CCN4CCCC4)cc3nc2c1 | inactive | 8200 | inactive | 5200 | inactive | 2650 | 2600
10 | CCN(CC)CCC(=O)Nc1ccc2cc3ccc(NC(=O)CCN(CC)CC)cc3nc2c1 | inactive | 2450 | inactive | 5800 | inactive | 570 | 2250
11 | CN(C)CCC(=O)Nc1ccc2cc3ccc(NC(=O)CCN(C)C)cc3nc2c1 | inactive | 9800 | inactive | 8200 | inactive | 750 | 2500
12 | O=C(CCN1CCOCC1)Nc1ccc2cc3ccc(NC(=O)CCN4CCOCC4)cc3nc2c1 | inactive | 15000 | inactive | > 50000 | inactive | 3100 | 13000
13 | O=C(CCN1CCCCC1CCO)Nc1ccc2cc3ccc(NC(=O)CCN4CCCCC4CCO)cc3nc2c1 (configuration not stated) | inactive | 11000 | inactive | 4100 | inactive | 3200 | 10500
14 | O=C(CCN1CCCCC1)Nc1ccc2cc3ccc(NC(=O)CCN4CCCCC4)cc3nc2c1 | inactive | 2250 | inactive | 2800 | inactive | 1700 | 540
15 | O=C(CCN1CCC(Cc2ccccc2)CC1)Nc1ccc2cc3ccc(NC(=O)CCN4CCC(Cc5ccccc5)CC4)cc3nc2c1 | inactive | 110 | inactive | > 50000 | inactive | 310 | 880
16 | CC1CCCCN1CCC(=O)Nc1ccc2cc3ccc(NC(=O)CCN4CCCCC4C)cc3nc2c1 (configuration not stated) | inactive | 2300 | inactive | 2600 | inactive | 1750 | 3400
